{"source": "patent US7105515B2", "about": "“Derivatives of sulphonamides, their preparation and use as medicaments” (Laboratories Del Dr. Esteve, S.A., priority 2001, dated 2006)", "note": "Counter-ions that a name gives are not always drawn."}
{"smiles": "CCN(CC)CCc1c[nH]c2ccc(NS(=O)(=O)c3cccc4ccccc34)cc12", "note": "(as salt: HCl) [Example 3, Hydrochloride N-[3-(2-diethylaminoethyl)-1H-indol-5-yl]naphthalene-1-sulphonamide]", "melting point": "255 to 257 °C"}
{"smiles": "CN1CCC(c2c[nH]c3ccc(NS(=O)(=O)c4cccc5ccccc45)cc23)CC1", "note": "(as salt: HCl) [Example 13, N-[3-(1-methylpiperidin-4-yl)-1H-indol-5-yl]naphthalene-1-sulphonamide hydrochloride]", "melting point": "212 °C (dec.)"}
{"smiles": "CCN(CC)CCc1c[nH]c2ccc(NS(=O)(=O)c3sc4ccc(Cl)cc4c3C)cc12", "note": "[Example 1, N-[3-(2-diethylaminoethyl)-1H-indol-5-yl]-5-chloro-3-methylbenzo[b]thiophene-2-sulphonamide]", "melting point": "170 to 173 °C"}
{"smiles": "CCN(CC)CCc1c[nH]c2ccc(NS(=O)(=O)c3cc(Cl)cc(Cl)c3)cc12", "note": "[Example 4, N-[3-(2-diethylaminoethyl)-1H-indol-5-yl]-3,5-dichlorobenzenesulphonamide]", "melting point": "168 to 170 °C"}
{"smiles": "CCN(CC)CCc1c[nH]c2ccc(NS(=O)(=O)c3ccc(-c4ccccc4)cc3)cc12", "note": "[Example 5, N-[3-(2-diethylaminoethyl)-1H-indol-5-yl]-4-phenylbenzenesulphonamide]", "melting point": "161 to 163 °C"}
{"smiles": "CCN(CC)CCc1c[nH]c2ccc(NS(=O)(=O)c3ccc(Cl)s3)cc12", "note": "[Example 6, N-[3-(2-diethylaminoethyl)-1H-indol-5-yl]-5-chlorothiophene-2-sulphonamide]", "melting point": "180 to 181 °C"}
{"smiles": "Cc1c(S(=O)(=O)Nc2ccc3[nH]cc(CCN(C)C)c3c2)sc2ccc(Cl)cc12", "note": "[Example 7, N-[3-(2-dimethylaminoethyl)-1H-indol-5-yl]-5-chloro-3-methylbenzo[b]thiophene-2-sulphonamide]", "melting point": "226 to 227 °C"}
{"smiles": "CN(C)CCc1c[nH]c2ccc(NS(=O)(=O)c3cccc4ccccc34)cc12", "note": "[Example 8, N-[3-(2-dimethylaminoethyl)-1H-indol-5-yl]naphthalene-1-sulphonamide]", "melting point": "203 to 205 °C"}
{"smiles": "CN1CCC(c2c[nH]c3ccc(NS(=O)(=O)c4ccc(Cl)s4)cc23)CC1", "note": "[Example 14, N-[3-(1-methylpiperidin-4-yl)-1H-indol-5-yl]-5-chlorothiophene-2-sulphonamide]", "melting point": "284 °C (dec.)"}
{"smiles": "CN1CCC(c2c[nH]c3ccc(NS(=O)(=O)c4ccc(-c5ccccc5)cc4)cc23)CC1", "note": "[Example 15, N-[3-(1-methylpiperidin-4-yl)-1H-indol-5-yl]-4-phenylbenzenesulphonamide]", "melting point": "247 to 248 °C"}
{"smiles": "CN1CCC(c2c[nH]c3ccc(NS(=O)(=O)c4cccc5cccnc45)cc23)CC1", "note": "[Example 16, N-[3-(1-methylpiperidin-4-yl)-1H-indol-5-yl]quinoline-8-sulphonamide]", "melting point": "280 °C (dec.)"}
{"smiles": "CCN(CC)CCc1c[nH]c2ccc(NS(=O)(=O)c3ccc4ccccc4c3)cc12", "note": "[Example 17, N-[3-(2-diethylaminoethyl)-1H-indol-5-yl]naphthalene-2-sulphonamide]", "melting point": "172 to 173 °C"}
